Test results taken from US10689377B2 (Mirati Therapeutics, Inc., priority 2017, dated 2020).

Molecular target: KRas G12C (Homo sapiens, UniProt P01116, G12C)
Assay: Cellular inhibition of KRas G12C measured by Phospho-ERK in NCI-H358 cells
Assay type: cell-based
Details: pERK(Thr202/Tyr204) normalized with GAPDH, NCI-H358 cells, 3 hours; read-out: IC50
Method in brief: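 NCI-H358 cells treated 3 h with compound (0.5% DMSO final), then fixed and methanol-permeabilised. In-cell immunofluorescence measured pERK(Thr202/Tyr204) normalised to GAPDH as percent of DMSO control. IC50 from a 4-parameter dose-response fit.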

KRas G12C, sequence (P01116 1-188 isoform P01116-2 G12C): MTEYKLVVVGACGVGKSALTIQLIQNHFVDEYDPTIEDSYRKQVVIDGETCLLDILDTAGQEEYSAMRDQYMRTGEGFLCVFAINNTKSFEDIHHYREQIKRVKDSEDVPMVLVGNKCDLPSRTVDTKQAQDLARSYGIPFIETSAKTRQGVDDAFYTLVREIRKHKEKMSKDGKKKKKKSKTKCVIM

Which IC50 does the source give for `C=CC(=O)N1CCN(c2nc(OC[C@@H]3CCCN3C(C)C)nc3c2CCN(c2cccc4ccccc24)C3)CC1CC#N` (stereo partly drawn) [Example 285, 2-[4-[2-[[(2S)-1-isopropylpyrrolidin-2-yl]methoxy]-7-(1-naphthyl)-6,8-dihydro-5H-pyrido[3,4-d]pyrimidin-4-yl]-1-prop-2-enoyl-piperazin-2-yl]acetonitrile] here?
Its IC50 is 0.1 to 1000 nM.

How did the IC50 turn out when `C=CC(=O)N1CCN(c2nc(OC[C@@H]3CCCN3C)nc3c2CCN(c2cccc4ccc(Cl)cc24)C3)CC1CC#N` (stereo partly drawn) [Example 286, 2-(1-acryloyl-4-(7-(7-chloronaphthalen-1-yl)-2-(((S)-1-methylpyrrolidin-2-yl)methoxy)-5,6,7,8-tetrahydropyrido[3,4-d]pyrimidin-4-yl)piperazin-2-yl)acetonitrile] was run?
Its IC50 is 0.1 to 1000 nM.

Which IC50 does the source give for `C=CC(=O)N1CCN(c2nc(OC[C@@H]3CCCN3C)nc3c2CCN(c2cccc4c(F)cccc24)C3)CC1CC#N` (stereo partly drawn) [Example 287, 2-[4-[7-(5-fluoro-1-naphthyl)-2-[[(2S)-1-methylpyrrolidin-2-yl]methoxy]-6,8-dihydro-5H-pyrido[3,4-d]pyrimidin-4-yl]-1-prop-2-enoyl-piperazin-2-yl]acetonitrile] here?
The IC50 was 0.1 to 1000 nM.

How did the IC50 turn out when `C=CC(=O)N1CCN(c2nc(OC[C@@H]3CCCN3C)nc3c2CCN(c2cccc4ccc(OC)cc24)C3)CC1CC#N` (stereo partly drawn) [Example 288, 2-[4-[7-(7-methoxy-1-naphthyl)-2-[[(2S)-1-methylpyrrolidin-2-yl]methoxy]-6,8-dihydro-5H-pyrido[3,4-d]pyrimidin-4-yl]-1-prop-2-enoyl-piperazin-2-yl]acetonitrile] was run?
The IC50 was greater than 1000 nM.

With `C=CC(=O)N1CCN(c2nc(OC[C@@H]3CCCN3C)nc3c2CCN(c2nccc4ccccc24)C3)CC1CC#N` (stereo partly drawn) [Example 289, 2-[4-[7-(1-isoquinolyl)-2-[[(2S)-1-methylpyrrolidin-2-yl]methoxy]-6,8-dihydro-5H-pyrido[3,4-d]pyrimidin-4-yl]-1-prop-2-enoyl-piperazin-2-yl]acetonitrile] as the molecule, how does the IC50 read?
Its IC50 is greater than 1000 nM.

For `C=CC(=O)N1CCN(c2nc(OC[C@@H]3CCCN3C)nc3c2CCN(c2cccc4cc(F)ccc24)C3)CC1CC#N` (stereo partly drawn) [Example 290, 2-[4-[7-(6-fluoro-1-naphthyl)-2-[[(2S)-1-methylpyrrolidin-2-yl]methoxy]-6,8-dihydro-5H-pyrido[3,4-d]pyrimidin-4-yl]-1-prop-2-enoyl-piperazin-2-yl]acetonitrile], which IC50 is on record?
The IC50 was 0.1 to 1000 nM.

How did the IC50 turn out when `C=CC(=O)N1CCN(c2nc(OC[C@@H]3CCCN3C)nc3c2CCN(c2cncc4ccccc24)C3)CC1CC#N` (stereo partly drawn) [Example 291, 2-[4-[7-(4-isoquinolyl)-2-[[(2S)-1-methylpyrrolidin-2-yl]methoxy]-6,8-dihydro-5H-pyrido[3,4-d]pyrimidin-4-yl]-1-prop-2-enoyl-piperazin-2-yl]acetonitrile] was run?
Its IC50 is 0.1 to 1000 nM.

With `C=CC(=O)N1CCN(c2nc(OC[C@@H]3CCCN3C)nc3c2CCN(c2cccc4cnccc24)C3)CC1CC#N` (stereo partly drawn) [Example 292, 2-[4-[7-(5-isoquinolyl)-2-[[(2S)-1-methylpyrrolidin-2-yl]methoxy]-6,8-dihydro-5H-pyrido[3,4-d]pyrimidin-4-yl]-1-prop-2-enoyl-piperazin-2-yl]acetonitrile] as the molecule, how does the IC50 read?
The IC50 was greater than 1000 nM.

For `C/C=C/C(=O)N1CCN(c2nc(OC[C@@H]3CCCN3C)nc3c2CCN(c2cccc4ccccc24)C3)CC1CC#N` (stereo partly drawn) [Example 293, 2-[1-[(E)-but-2-enoyl]-4-[2-[[(2S)-1-methylpyrrolidin-2-yl]methoxy]-7-(1-naphthyl)-6,8-dihydro-5H-pyrido[3,4-d]pyrimidin-4-yl]piperazin-2-yl]acetonitrile], which IC50 is on record?
The IC50 was 0.1 to 1000 nM.

How did the IC50 turn out when `C=CC(=O)N1CCN(c2nc(OC[C@@H]3CCCN3C)nc3c2CCN(c2cccc4ncccc24)C3)CC1CC#N` (stereo partly drawn) [Example 294, 2-[4-[2-[[(2S)-1-methylpyrrolidin-2-yl]methoxy]-7-(5-quinolyl)-6,8-dihydro-5H-pyrido[3,4-d]pyrimidin-4-yl]-1-prop-2-enoyl-piperazin-2-yl]acetonitrile] was run?
Its IC50 is greater than 1000 nM.

Which IC50 does the source give for `C=CC(=O)N1CCN(c2nc(OC[C@@H]3CCCN3C)nc3c2CCN(c2ccnc4ccccc24)C3)CC1CC#N` (stereo partly drawn) [Example 295, 2-[4-[2-[[(2S)-1-methylpyrrolidin-2-yl]methoxy]-7-(4-quinolyl)-6,8-dihydro-5H-pyrido[3,4-d]pyrimidin-4-yl]-1-prop-2-enoyl-piperazin-2-yl]acetonitrile] here?
Its IC50 is greater than 1000 nM.

For `C=CC(=O)N1CCN(c2nc(OCCN(C)C)nc3c2CCN(c2ccccc2C(F)(F)F)C3)CC1CC#N` (centres unmarked) [Example 296, 2-[4-[2-[2-(dimethylamino)ethoxy]-7-[2-(trifluoromethyl)phenyl]-6,8-dihydro-5H-pyrido[3,4-d]pyrimidin-4-yl]-1-prop-2-enoyl-piperazin-2-yl]acetonitrile], which IC50 is on record?
Its IC50 is 0.1 to 1000 nM.

For `C=CC(=O)N1CCN(c2nc(OCCCN3C[C@H]4C[C@@H]3CO4)nc3c2CCN(c2ccccc2C(F)(F)F)C3)CC1CC#N` (stereo partly drawn) [Example 297, 2-[4-[2-[3-[(1R,4R)-2-oxa-5-azabicyclo[2.2.1]heptan-5-yl]propoxy]-7-[2-(trifluoromethyl)phenyl]-6,8-dihydro-5H-pyrido[3,4-d]pyrimidin-4-yl]-1-prop-2-enoyl-piperazin-2-yl]acetonitrile], which IC50 is on record?
The IC50 was 0.1 to 1000 nM.

With `C=CC(=O)N1CCN(c2nc(OC[C@@H]3CCN(C)C3)nc3c2CCN(c2ccccc2C(F)(F)F)C3)CC1CC#N` (stereo partly drawn) [Example 298, 2-(1-acryloyl-4-(2-(((R)-1-methylpyrrolidin-3-yl)methoxy)-7-(2-(trifluoromethyl)phenyl)-5,6,7,8-tetrahydropyrido[3,4-d]pyrimidin-4-yl)piperazin-2-yl)acetonitrile] as the molecule, how does the IC50 read?
Its IC50 is 0.1 to 1000 nM.

Which IC50 does the source give for `C=CC(=O)N1CCN(c2nc(OC[C@H]3CCCN3C)nc3c2CCN(c2ccccc2C(F)(F)F)C3)CC1CC#N` (stereo partly drawn) [Example 299, 2-[4-[2-[[(2R)-1-methylpyrrolidin-2-yl]methoxy]-7-[2-(trifluoromethyl)phenyl]-6,8-dihydro-5H-pyrido[3,4-d]pyrimidin-4-yl]-1-prop-2-enoyl-piperazin-2-yl]acetonitrile] here?
The IC50 was 0.1 to 1000 nM.

Which IC50 does the source give for `C=CC(=O)N1CCN(c2nc(OCCN(CC)CC)nc3c2CCN(c2ccccc2C(F)(F)F)C3)CC1CC#N` (centres unmarked) [Example 300, 2-[4-[2-[2-(diethylamino)ethoxy]-7-[2-(trifluoromethyl)phenyl]-6,8-dihydro-5H-pyrido[3,4-d]pyrimidin-4-yl]-1-prop-2-enoyl-piperazin-2-yl]acetonitrile] here?
Its IC50 is 0.1 to 1000 nM.

Which IC50 does the source give for `C=CC(=O)N1CCN(c2nc(OC[C@@H]3CCC(C)(C)N3C)nc3c2CCN(c2cccc4ccccc24)C3)CC1CC#N` (stereo partly drawn) [Example 301, 2-[4-[7-(1-naphthyl)-2-[[(2S)-1,5,5-trimethylpyrrolidin-2-yl]methoxy]-6,8-dihydro-5H-pyrido[3,4-d]pyrimidin-4-yl]-1-prop-2-enoyl-piperazin-2-yl]acetonitrile] here?
The IC50 was 0.1 to 1000 nM.

How did the IC50 turn out when `C=CC(=O)N1CCN(c2nc(OC[C@@H]3CCCN3C)nc3c2CCN(c2cccc4ccc(F)cc24)C3)CC1CC#N` (some centres unmarked) [Example 302] was run?
Its IC50 is 0.1 to 1000 nM.

Which IC50 does the source give for `C=CC(=O)N1CCN(c2nc(OCCN3CCCCC3)nc3c2CCN(c2cccc4ccccc24)C3)CC1CC#N` (centres unmarked) [Example 303, 2-[4-[7-(1-naphthyl)-2-[2-(1-piperidyl)ethoxy]-6,8-dihydro-5H-pyrido[3,4-d]pyrimidin-4-yl]-1-prop-2-enoyl-piperazin-2-yl]acetonitrile] here?
Its IC50 is 0.1 to 1000 nM.

`C=CC(=O)N1CCN(c2nc(OC[C@H]3CCCN3CCO)nc3c2CCN(c2cccc4ccccc24)C3)CC1CC#N` (stereo partly drawn) [Example 304, 2-[4-[2-[[(2R)-1-(2-hydroxyethyl)pyrrolidin-2-yl]methoxy]-7-(1-naphthyl)-6,8-dihydro-5H-pyrido[3,4-d]pyrimidin-4-yl]-1-prop-2-enoyl-piperazin-2-yl]acetonitrile] was tested. Which IC50 did it give?
Its IC50 is 0.1 to 1000 nM.

For `C=CC(=O)N1CCN(c2nc(OC[C@@H]3CCCN3C)nc3c2CCN(c2cnccc2C#N)C3)C[C@@H]1CC#N` [Example 305, 3-(4-((S)-4-acryloyl-3-(cyanomethyl)piperazin-1-yl)-2-(((S)-1-methylpyrrolidin-2-yl)methoxy)-5,6-dihydropyrido[3,4-d]pyrimidin-7(8H)-yl)isonicotinonitrile], which IC50 is on record?
The IC50 was greater than 1000 nM.

For `C=CC(=O)N1CCN(c2nc(OC[C@@H]3C[C@@H](F)CN3C)nc3c2CCN(c2cccc4ccccc24)C3)C[C@@H]1CC#N` [Example 306, 2-((S)-1-acryloyl-4-(2-(((2S,4R)-4-fluoro-1-methylpyrrolidin-2-yl)methoxy)-7-(naphthalen-1-yl)-5,6,7,8-tetrahydropyrido[3,4-d]pyrimidin-4-yl)piperazin-2-yl)acetonitrile], which IC50 is on record?
The IC50 was 0.1 to 1000 nM.

How did the IC50 turn out when `C=CC(=O)N1CCN(c2nc(OC[C@@H]3CCCN3C)nc3c2CCN(c2cccc(OC)c2F)C3)CC1CC#N` (stereo partly drawn) [Example 307, 2-[4-[7-(2-fluoro-3-methoxy-phenyl)-2-[[(2S)-1-methylpyrrolidin-2-yl]methoxy]-6,8-dihydro-5H-pyrido[3,4-d]pyrimidin-4-yl]-1-prop-2-enoyl-piperazin-2-yl]acetonitrile] was run?
The IC50 was greater than 1000 nM.

For `C=CC(=O)N1CCN(c2nc(OC[C@@H]3CCCN3C)nc3c2CCN(c2cccc(F)c2OC)C3)CC1CC#N` (stereo partly drawn) [Example 308, 2-(1-acryloyl-4-(7-(3-fluoro-2-methoxyphenyl)-2-(((S)-1-methylpyrrolidin-2-yl)methoxy)-5,6,7,8-tetrahydropyrido[3,4-d]pyrimidin-4-yl)piperazin-2-yl)acetonitrile], which IC50 is on record?
Its IC50 is 0.1 to 1000 nM.

How did the IC50 turn out when `C=CC(=O)N1CCN(c2nc(OC[C@@H]3CCCN3C)nc3c2CCN(c2cccc4cccc(C)c24)C3)CC1CC#N` (stereo partly drawn) [Example 309, 2-(1-acryloyl-4-(7-(8-methylnaphthalen-1-yl)-2-(((S)-1-methylpyrrolidin-2-yl)methoxy)-5,6,7,8-tetrahydropyrido[3,4-d]pyrimidin-4-yl)piperazin-2-yl)acetonitrile] was run?
Its IC50 is 0.1 to 1000 nM.

How did the IC50 turn out when `C=CC(=O)N1CCN(c2nc(OC[C@@H]3CCCN3C)nc3c2CCN(c2c(F)ccc4ccccc24)C3)CC1CC#N` (stereo partly drawn) [Example 311, 2-(1-acryloyl-4-(7-(2-fluoronaphthalen-1-yl)-2-(((S)-1-methylpyrrolidin-2-yl)methoxy)-5,6,7,8-tetrahydropyrido[3,4-d]pyrimidin-4-yl)piperazin-2-yl)acetonitrile] was run?
Its IC50 is 0.1 to 1000 nM.
